Test results reported in patent US20130130992A1, “DIPEPTIDE DERIVATIVE FOR THE TREATMENT OF CANCER” (ONCOTEST GMBH, priority 2010, published 2013).
Like-named read-outs stand apart in the source and are kept apart here.

Key:
[1] = system: panel of 40 human tumor cell lines; assay: Monolayer propidium iodide assay, whole panel; format: cell-based; settings: for IC50: Homo sapiens
Source text: (§1) Oncotest GmbH, Germany's proprietary tumor cell line panel comprises 40 cell lines. These cell lines were derived from 15 different tumor histotypes, each represented by 1 to 6 different cell lines. Cell lines were established from cancer of the bladder (3), colon (4), head and neck (1), lung (6), breast (3), pancreas (3), prostate (4), ovary (2), kidney (3), liver (1), stomach (1) and the uteri body (1), as well as from melanoma (3), sarcoma (2) and pleuramesothelioma (3). Out of these 40 cell lines, 24 cell lines were established at Oncotest, from patient-derived tumor xenografts. The other 16 cell lines were either provided by the NCl (Bethesda; MD, USA) or were purchased from ATCC (Rockville, Md., USA) or DSMZ (Braunschweig, Germany).
Cell lines were routinely passaged once or twice weekly and maintained in culture for upto 20 passages. All the cells were grown at 37° C. in a humidified atmosphere with 5% (Carbon Dioxide) CO2 in RPMI 1640 medium supplemented with 10% (v/v) fetal calf serum (FCS) and 0.1 mg/ml gentamicin (medium and all other components from PAA, Colbe, Germany). Authenticity of all cell lines was proven by STR (short tandem repeat) analysis, a PCR based DNA-fingerprinting methodology.
Stock solutions of the compound of formula (1) (3.3 mM in DMSO) were prepared and stored in small aliquots (200 μl) at −20° C. An aliquot of the stock solution was thawed on the day of use and stored at room temperature prior to and during dosing. The subsequent dilutions were done with complete RPMI 1640 cell culture medium as follows: the stock solution was diluted 1:22 followed by serial dilutions finally resulting in a (compared to the test concentration) 15-fold higher concentration. For the final dilution step (1:15), 10 μl/well of the solution was directly added to 140 μl/well culture medium. Compound of formula (1) [also referred as test compound] was tested at 0.00032, 0.001, 0.0032, 0.01, 0.032, 0.1, 0.32, 1, 3.2 and 10 μM. Each concentration was evaluated in triplicate.
A modified Propidium Iodide assay was used to assess the effect of the compound of formula (1) on the growth of the human tumor cell lines and was designed as in reference, Anti-cancer Drugs, 6, 522-532, (1995), the disclosure of which is incorporated by reference for the teaching of the assay.
Cells were plated in 96-well flat-bottom microtiter plates at a cell density of 4,000 to 20,000 cells/well. After a 24 hr recovery period to allow the cells to resume exponential growth, the compound of formula (1) was applied at 10 concentrations in half-log increments in triplicates and treatment continued for 4 days. After 4 days of treatment, cells were next washed with 200 μl phosphate buffer solution (PBS) to remove dead cells, then 200 μl of a solution containing 7 μg/ml propidium iodide (PI) and 0.1% (v/v) Triton X-100 were added to the wells. After an incubation period of 1-2 hours at room temperature, fluorescence (FU) was measured using the Cytofluor 4000 microplate reader (excitation λ=530 nm, emission λ=620 nm) to quantify the amount of attached viable cells. Pharmacological effects on cell proliferation and survival were expressed as Test/Control×100 (% T/C) values, with T and C representing the fluorescence read-outs for wells with and without test compound, respectively, i.e. T/C represents the ratio of viable cell numbers following incubation of cell line with and without test compound. Based on the T/C values, relative IC50 values were determined by non-linear regression (log [conc. of inhibitor] versus response (% T/C)) using the GraphPad Prism® analysis software (Prism 5 for Windows, version 5.01, GraphPad Software Inc., CA). For calculation of mean IC50 values over the 40 cell lines as tested, the geometric mean was selected. If Graph Pad Prism could not calculate reliable IC50 values by non-linear regression, the IC50 value was estimated by visual inspection of the concentration-effect curve.

CXF 269L = assay: Monolayer propidium iodide assay, CXF 269L; format: cell-based; settings: Homo sapiens, 96 h, Colon, 4 days of treatment
Source text: as §1, with “The other 16 cell lines were either provided by the NCl (Bethesda; MD, USA) or were purchased from ATCC (Rockville, Md., USA) or DSMZ (Braunschweig, Germany).” left out
(§2) Stock solutions of the compound of formula (1) (3.3 mM in DMSO) were prepared and stored in small aliquots (200 μl) at −20° C. […] Each concentration was evaluated in triplicate. […]
(§3) Cells were plated in 96-well flat-bottom microtiter plates at a cell density of 4,000 to 20,000 cells/well. […] After an incubation period of 1-2 hours at room temperature, fluorescence (FU) was measured using the Cytofluor 4000 microplate reader (excitation λ=530 nm, emission λ=620 nm) to quantify the amount of attached viable cells. […] Based on the T/C values, relative IC50 values were determined by non-linear regression (log [conc. of inhibitor] versus response (% T/C)) using the GraphPad Prism® analysis software (Prism 5 for Windows, version 5.01, GraphPad Software Inc., CA). […]

BXF 1218L = assay: Monolayer propidium iodide assay, BXF 1218L; format: cell-based; settings: Homo sapiens, 96 h, Bladder, 4 days of treatment
Source text: as §1, with “The other 16 cell lines were either provided by the NCl (Bethesda; MD, USA) or were purchased from ATCC (Rockville, Md., USA) or DSMZ (Braunschweig, Germany).” left out
as §2, §3

UXF 1138L = assay: Monolayer propidium iodide assay, UXF 1138L; format: cell-based; settings: Homo sapiens, 96 h, Uterus, 4 days of treatment
Source text: as §1, with “The other 16 cell lines were either provided by the NCl (Bethesda; MD, USA) or were purchased from ATCC (Rockville, Md., USA) or DSMZ (Braunschweig, Germany).” left out
as §2, §3

RXF 393NL = assay: Monolayer propidium iodide assay, RXF 393NL; format: cell-based; settings: Homo sapiens, 96 h, Renal, 4 days of treatment
Source text: as §1, with “The other 16 cell lines were either provided by the NCl (Bethesda; MD, USA) or were purchased from ATCC (Rockville, Md., USA) or DSMZ (Braunschweig, Germany).” left out
as §2, §3

PXF 1118L = assay: Monolayer propidium iodide assay, PXF 1118L; format: cell-based; settings: Homo sapiens, 96 h, Pleuramesothelioma, 4 days of treatment
Source text: as §1, with “The other 16 cell lines were either provided by the NCl (Bethesda; MD, USA) or were purchased from ATCC (Rockville, Md., USA) or DSMZ (Braunschweig, Germany).” left out
as §2, §3

OVXF 899L = assay: Monolayer propidium iodide assay, OVXF 899L; format: cell-based; settings: Homo sapiens, 96 h, Ovarian, 4 days of treatment
Source text: as §1, with “The other 16 cell lines were either provided by the NCl (Bethesda; MD, USA) or were purchased from ATCC (Rockville, Md., USA) or DSMZ (Braunschweig, Germany).” left out
as §2, §3

RXF 486L = assay: Monolayer propidium iodide assay, RXF 486L; format: cell-based; settings: Homo sapiens, 96 h, Renal, 4 days of treatment
Source text: as §1, with “The other 16 cell lines were either provided by the NCl (Bethesda; MD, USA) or were purchased from ATCC (Rockville, Md., USA) or DSMZ (Braunschweig, Germany).” left out
as §2, §3

LXFA 526L = assay: Monolayer propidium iodide assay, LXFA 526L; format: cell-based; settings: Homo sapiens, 96 h, Lung, 4 days of treatment
Source text: as §1, with “The other 16 cell lines were either provided by the NCl (Bethesda; MD, USA) or were purchased from ATCC (Rockville, Md., USA) or DSMZ (Braunschweig, Germany).” left out
as §2, §3

PXF 1752L = assay: Monolayer propidium iodide assay, PXF 1752L; format: cell-based; settings: Homo sapiens, 96 h, Pleuramesothelioma, 4 days of treatment
Source text: as §1, with “The other 16 cell lines were either provided by the NCl (Bethesda; MD, USA) or were purchased from ATCC (Rockville, Md., USA) or DSMZ (Braunschweig, Germany).” left out
as §2, §3

LXFL H 460 = assay: Monolayer propidium iodide assay, LXFL H 460; format: cell-based; settings: Homo sapiens, NCI-H460, 96 h; LXFL H 460, Lung; 4 days of treatment
Source text: as §1, with “The other 16 cell lines were either provided by the NCl (Bethesda; MD, USA) or were purchased from ATCC (Rockville, Md., USA) or DSMZ (Braunschweig, Germany).” left out
as §2, §3

LXFL 529L = assay: Monolayer propidium iodide assay, LXFL 529L; format: cell-based; settings: Homo sapiens, 96 h, Lung, 4 days of treatment
Source text: as §1, with “The other 16 cell lines were either provided by the NCl (Bethesda; MD, USA) or were purchased from ATCC (Rockville, Md., USA) or DSMZ (Braunschweig, Germany).” left out
as §2, §3

[2] = Solubility (physical properties); format: physicochemical
MEXF 462NL = assay: Monolayer propidium iodide assay, MEXF 462NL; format: cell-based; settings: Homo sapiens, 96 h, Melanoma, 4 days of treatment
Source text: as §1, with “The other 16 cell lines were either provided by the NCl (Bethesda; MD, USA) or were purchased from ATCC (Rockville, Md., USA) or DSMZ (Braunschweig, Germany).” left out
as §2, §3

CXF HCT 116 = assay: Monolayer propidium iodide assay, CXF HCT 116; format: cell-based; settings: Homo sapiens, 96 h; CXF HCT 116, Colon; 4 days of treatment
Source text: as §1, with “The other 16 cell lines were either provided by the NCl (Bethesda; MD, USA) or were purchased from ATCC (Rockville, Md., USA) or DSMZ (Braunschweig, Germany).” left out
as §2, §3

MAXF MCF 7 = assay: Monolayer propidium iodide assay, MAXF MCF 7; format: cell-based; settings: Homo sapiens, MCF7, 96 h; MAXF MCF 7, Mammary; 4 days of treatment
Source text: as §1, with “The other 16 cell lines were either provided by the NCl (Bethesda; MD, USA) or were purchased from ATCC (Rockville, Md., USA) or DSMZ (Braunschweig, Germany).” left out
as §2, §3

PRXF DU 145 = assay: Monolayer propidium iodide assay, PRXF DU 145; format: cell-based; settings: Homo sapiens, 96 h; PRXF DU 145, Prostate; 4 days of treatment
Source text: as §1, with “The other 16 cell lines were either provided by the NCl (Bethesda; MD, USA) or were purchased from ATCC (Rockville, Md., USA) or DSMZ (Braunschweig, Germany).” left out
as §2, §3

Tumor selectivity: number of cell lines with individual IC50 < mean IC50 ([1]; Colon): 3/4 | IC50 ([1]; 3/3 pancreatic tumor cell lines, read-out: individual IC50, pancreatic tumor cell lines): < 60 nM | IC50 ([1]; 5/6 cell lines derived from lung carcinoma, read-out: individual IC50, lung carcinoma cell lines): < 50 nM | IC50 ([1]; geometric mean over the 40 cell lines, read-out: Mean IC50): 89 nM | IC50 ([1]; upper bound for every cell line of the panel, read-out: IC50 achieved for all the 40 cell lines): < 330 nM | Tumor selectivity: number of cell lines with individual IC50 < mean IC50 ([1]; Kidney): 0/3 | Tumor selectivity: number of cell lines with individual IC50 < mean IC50 ([1]; Lung): 5/6 | Tumor selectivity: number of cell lines with individual IC50 < mean IC50 ([1]; Melanoma): 0/3 | Tumor selectivity: number of cell lines with individual IC50 < mean IC50 ([1]; Pancreas): 3/3 | Tumor selectivity: number of cell lines with individual IC50 < mean IC50 ([1]; Pleurameso): 1/3 | Tumor selectivity: number of cell lines with individual IC50 < mean IC50 ([1]; Prostate): 2/4 | IC50 (CXF 269L): 55 nM | IC50 (BXF 1218L): 46 nM | IC50 (UXF 1138L): 126 nM | IC50 (RXF 393NL): 323 nM | IC50 (PXF 1118L): 54 nM | IC50 (OVXF 899L): 301 nM | IC50 (RXF 486L): 159 nM | IC50 (LXFA 526L): 21 nM | IC50 (PXF 1752L): 187 nM | IC50 (LXFL H 460): 146 nM | IC50 (LXFL 529L): 50 nM | Solubility ([2]; in water): insoluble in water | IC50 (MEXF 462NL): 149 nM | IC50 (CXF HCT 116): 48 nM | IC50 (MAXF MCF 7): 276 nM | IC50 (PRXF DU 145): 52 nM
Structure (SMILES): CCCC1CCCCCC(O)CC(=O)NC2CSSCC(NC2=O)C(=O)O1 (centres unmarked) [compound of formula (1)]
Solubility ([2]; in chloroform and methanol): sparingly soluble in chloroform and methanol; and | Solubility ([2]; in pyridine, acetic acid, dimethyl sulfoxide): Soluble in pyridine, acetic acid, dimethyl sulfoxide;
